# Laboratory results reported in paper PMC4730408, “Genistein and Glyceollin Effects on ABCC2 (MRP2) and ABCG2 (BCRP) in Caco-2 Cells” (International Journal of Environmental Research and Public …, 2015).
# Target: MRP2 (ABCC2, multidrug resistance protein 2) (Homo sapiens, UniProt Q92887)
# Experiment: calcein retention (calcein-AM) in Caco-2 cells; CDF transport across Caco-2 monolayers
# Type: cell-based
# Sequence of MRP2 (ABCC2, multidrug resistance protein 2) (Q92887 whole entry): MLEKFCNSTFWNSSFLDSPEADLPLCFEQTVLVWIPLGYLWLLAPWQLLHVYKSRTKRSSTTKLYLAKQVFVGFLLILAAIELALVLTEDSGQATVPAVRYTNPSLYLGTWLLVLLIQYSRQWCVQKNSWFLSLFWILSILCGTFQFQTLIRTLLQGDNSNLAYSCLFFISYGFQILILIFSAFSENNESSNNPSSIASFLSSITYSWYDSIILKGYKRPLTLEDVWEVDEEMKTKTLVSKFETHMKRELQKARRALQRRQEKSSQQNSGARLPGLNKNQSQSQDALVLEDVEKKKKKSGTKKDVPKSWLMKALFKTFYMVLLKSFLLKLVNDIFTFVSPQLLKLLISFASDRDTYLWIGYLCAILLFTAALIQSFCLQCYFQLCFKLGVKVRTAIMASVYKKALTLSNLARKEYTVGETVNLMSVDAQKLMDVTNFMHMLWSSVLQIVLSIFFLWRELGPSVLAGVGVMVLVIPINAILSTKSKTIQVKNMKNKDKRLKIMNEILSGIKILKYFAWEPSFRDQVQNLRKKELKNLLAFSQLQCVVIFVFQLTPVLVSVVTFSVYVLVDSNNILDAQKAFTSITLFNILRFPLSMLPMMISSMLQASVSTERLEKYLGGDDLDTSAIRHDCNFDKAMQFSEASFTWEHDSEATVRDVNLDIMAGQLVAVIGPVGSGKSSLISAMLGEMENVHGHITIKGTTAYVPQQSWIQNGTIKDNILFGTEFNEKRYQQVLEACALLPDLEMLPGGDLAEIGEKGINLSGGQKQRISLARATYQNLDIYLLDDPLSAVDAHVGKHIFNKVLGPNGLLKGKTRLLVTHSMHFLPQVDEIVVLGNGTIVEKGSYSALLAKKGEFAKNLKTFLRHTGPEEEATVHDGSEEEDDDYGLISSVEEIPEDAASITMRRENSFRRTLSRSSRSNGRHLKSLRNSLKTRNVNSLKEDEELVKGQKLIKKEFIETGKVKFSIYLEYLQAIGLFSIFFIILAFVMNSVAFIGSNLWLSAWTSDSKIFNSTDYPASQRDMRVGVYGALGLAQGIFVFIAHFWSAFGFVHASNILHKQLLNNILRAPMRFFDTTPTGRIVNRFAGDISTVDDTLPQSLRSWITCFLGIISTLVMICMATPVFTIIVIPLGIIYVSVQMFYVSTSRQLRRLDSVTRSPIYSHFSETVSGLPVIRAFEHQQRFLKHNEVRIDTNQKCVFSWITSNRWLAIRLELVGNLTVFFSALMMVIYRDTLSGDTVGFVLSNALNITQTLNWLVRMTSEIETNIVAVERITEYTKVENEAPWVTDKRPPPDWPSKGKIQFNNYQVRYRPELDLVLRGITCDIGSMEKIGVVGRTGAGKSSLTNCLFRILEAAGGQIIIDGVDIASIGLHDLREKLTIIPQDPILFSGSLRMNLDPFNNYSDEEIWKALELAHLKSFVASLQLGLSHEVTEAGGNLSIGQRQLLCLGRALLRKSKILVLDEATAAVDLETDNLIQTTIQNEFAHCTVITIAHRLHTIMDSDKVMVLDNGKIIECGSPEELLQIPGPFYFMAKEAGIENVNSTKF
smiles,measurement,value
CN(C)C(=O)CCSC(SCCC(=O)O)c1cccc(/C=C/c2ccc3ccc(Cl)cc3n2)c1 (stereo not shown) [MK-571],EC50,20 µM
